With `CNC(=O)c1cncc(C=CC(=O)O)c1`, the melting point (as a rule, the temperature, or range, at which the solid turns liquid) was 253 to 255 °C. `Nc1cc(Cl)ccc1S(N)(=O)=O` had a melting point of 142 to 144 °C. Consider `Cc1cc(Cl)c(N)c(C(=O)O)c1`, for which the melting point was 201 to 203 °C. As for `Cn1cc(CO)nn1`, the figure is 29 to 31 °C; as for `Cn1cnn(CC(=O)O)c1=O`, 172 to 174 °C; as for `OC1C=C(c2ccc(Cl)cc2)CC1` (configuration not stated), 89 to 91 °C.

`O=C(O)[C@@H]1CCCN1C(=O)c1ccccn1` displayed a melting point of 165 to 167 °C.

In turn, `CS(=O)(=O)Cc1nc(CCl)cs1` had a melting point of 80 to 82 °C.

Take `O=C(O)Cc1cccc(OCCCOc2ccccc2)c1`: the melting point was in the range of 78 to 80 °C. Take `COc1cc(C(=O)O)c(N)cc1OC(F)F`: the melting point was 152 to 154 °C. Next, `CCOC(=O)CN(C(=O)CCl)c1ccccc1`: 130 to 135 °C; `COc1ccc(S(N)(=O)=O)cc1C`: 137 to 139 °C; `CC1Cc2ccc(Br)cc2C1=O` (configuration not stated): 69 to 71 °C. As for `CS(=O)(=O)c1ccc(Cl)c(S(N)(=O)=O)c1`, the figure is 228 to 230 °C. As for `O=C(O)Cn1c(=O)oc2ccccc21`, the figure is 178 to 180 °C; as for `Sc1nnc(-c2ccccc2Br)[nH]1`, 195 to 197 °C. In the case of `Nc1cc(-c2cc(F)cc(Br)c2)[nH]n1`, the melting point fell in the range of 104 to 106 °C. As for `NC(=O)N1CC(O)CC1C(=O)O` (configuration not stated), the figure is 166 to 168 °C; as for `Cc1cccc(OCC(=O)N2CCNCC2)c1C`, 86 to 88 °C; as for `CC(C)(C)N1C(=O)CC(C(=O)O)C1c1ccc(Cl)c(F)c1` (configuration not stated), 249 to 251 °C. Regarding `Cc1sc2nc(-c3cccnc3)nc(Cl)c2c1-c1ccccc1`, the melting point was 144 to 146 °C. Next, `CN1C(=O)N(CC(=O)O)C(=O)C12CCCCC2`: 220 to 222 °C; `O=C(O)C1(c2ccccc2)CCOCC1`: 128 to 130 °C. Turning to `Oc1ccc(OCC(F)(F)F)cc1`, the melting point lay within 60 to 62 °C. `C=CCc1cc(C(=O)OC)cc(OC)c1O` registered a melting point of 76 to 78 °C. As for `NC(=S)CO`, the figure is 54 to 56 °C.

Turning to `CN1CCC(NCCO)CC1`, the melting point lay within 37 to 39 °C.

With `O=S(=O)(c1ccc(Cl)nc1)N(Cc1ccccc1)Cc1ccccc1`, the melting point is 106 to 108 °C. As for `O=C(O)c1cccc(Nc2cnccn2)c1`, the figure is 239 to 241 °C. Next, `CCC1(CC)NC(=O)N(CC(=O)O)C1=O`: 169 to 173 °C; `COc1cc(Br)ccc1C#N`: 135 to 137 °C. Next, `CCOc1ccc(S(=O)(=O)Cl)cn1`: 47 to 49 °C; `Cn1cc(C(=O)CBr)c2ccccc21`: 132 to 134 °C.

Compound `O=C1NCCCCC1Oc1ccc(O)cc1` (configuration not stated) showed a melting point of 219 to 221 °C. As for `Nc1cccc(-n2cnnc2)c1`, the figure is 199 to 201 °C; as for `CC(C)(O[Si](C)(C)C)C(N)=O`, 29 to 31 °C; as for `Nc1ccc(-n2cc[nH]c2=O)cc1`, 217 to 219 °C. In turn, `CC(C)=C(C)C(=O)O` came in with a melting point of 68 to 70 °C.

`O=C(O)c1ccccc1SC(F)F` came in with a melting point of 114 to 116 °C.

Consider `NNC(=O)c1ccc(O)c(Cl)c1`, for which the melting point was 280 to 282 °C. Compound `NS(=O)(=O)c1cc(Cl)c(Br)s1` yielded a melting point of 147 to 149 °C. `C#CCNC(=O)NC1(C(=O)O)CCc2ccccc21` (configuration not stated) came in with a melting point of 181 to 183 °C.

In the case of `NCCCc1nc2ccccc2[nH]1`, the melting point lay within 210 to 212 °C.

Take `CCCCOc1ccc(C=O)cc1OCC`: the melting point was in the range of 38 to 40 °C. For `CC(Cl)C(=O)NCC1CCCCC1` (configuration not stated), the melting point is 83 to 85 °C. As for `Nc1ccc(CCn2cc(Br)cn2)cc1`, the figure is 65 to 67 °C.

`CCCSc1ccc(C(=O)O)cc1`: the melting point was in the range of 141 to 143 °C. Next, `CCNCC(=O)Nc1c(C)cccc1C`: 45 to 47 °C; `O=[N+]([O-])c1cnc(Cl)nc1NC1CC1`: 114 to 116 °C; `Cc1[nH]c2ccc(Cl)cc2c1C=O`: 248 to 250 °C. Next, `CON(C)S(=O)(=O)c1ccc(N)cc1`: 148 to 150 °C. Next, `O=Cc1ccc(N2CCOCC2)c(F)c1`: 68 to 70 °C; `CN(C)S(=O)(=O)c1ccc(F)c([N+](=O)[O-])c1`: 118 to 120 °C; `CCOC(=O)/C(C#N)=C/Nc1ccc(I)cc1`: 155 to 157 °C.

Compound `NS(=O)(=O)C1CCCCC1` gave a melting point of 91 to 93 °C. In the case of `O=C(CCl)N(Cc1ccccc1)c1ccccc1`, the melting point is 79 to 81 °C. Compound `CCCC(=O)Nc1cccc(N)c1C` yielded a melting point of 106 to 108 °C. As for `CC(=O)c1c(Cl)nc2sccn12`, the figure is 159 to 161 °C. Next, `COc1ccc(NS(=O)(=O)c2ccc(C)c(N)c2)cc1`: 127 to 129 °C; `COC(=O)C1=NOC(C(=O)O)C1` (configuration not stated): 83 to 85 °C; `CNS(=O)(=O)c1ccc(NCCOC)c(N)c1`: 111 to 113 °C. Next, `c1cncc(-c2ncn[nH]2)c1`: 173 to 175 °C; `O=C(O)CC1CCCN1C(=O)c1ccc(Br)c(F)c1` (configuration not stated): 134 to 136 °C; `O=C(O)CCC(=O)N1CCC(O)CC1`: 121 to 123 °C. In turn, `Cc1cc(Br)cc(C=O)c1OC(F)F` came in with a melting point of 46 to 48 °C.

In the case of `CCc1cccc(CC)c1-n1ccnc1S`, the melting point lay in the range of 196 to 198 °C.

`CCOC(=O)c1cn[nH]c1C(F)F` yielded a melting point of 64 to 66 °C.

`CC(C)(C)OC(=O)NCCNS(=O)(=O)c1ccc(N)cc1` had a melting point of 130 to 132 °C. Next, `CC(C)(C)NC(=O)NC(=O)CCl`: 109 to 112 °C; `CCN1C(=N)C(C)(C)N(C)C1=O`: 88 to 90 °C. The compound `Cc1ccccc1C1(C)NC(=O)NC1=O` (configuration not stated) gave a melting point of 169 to 171 °C. As for `COc1ccc(Cn2ncc3cc(C(=O)O)cnc32)c(OC)c1`, the figure is 205 to 207 °C; as for `O=c1[nH]c(-c2ccccc2)no1`, 184 to 186 °C. Compound `O=C(O)COc1ccc(C2SCCCS2)cc1` came in with a melting point of 201 to 203 °C.

For `CC(C)C(C#N)NC(=O)OC(C)(C)C` (configuration not stated), the melting point lay within 73 to 75 °C. Next, `Cc1cc(F)ccc1S(=O)(=O)Nc1ccc(C(=O)O)cc1`: 199 to 201 °C; `Nc1nc2cnccc2s1`: 275 to 277 °C; `CC(=O)c1cccc(N(S(C)(=O)=O)S(C)(=O)=O)c1`: 185 to 187 °C. Next, `Cn1nnnc1S(C)(=O)=O`: 64 to 66 °C. `NC(=NO)c1cccc([N+](=O)[O-])c1` gave a melting point of 182 to 184 °C.

Consider `CC(Oc1ccc2c(c1)CCC2)C(=O)O` (configuration not stated), for which the melting point was 103 to 105 °C. Next, `O=C(O)c1cc(S(=O)(=O)N2CCC2)ccc1Cl`: 172 to 174 °C. Next, `CC(C)(CCC(=O)O)NC(=O)OC(C)(C)C`: 91 to 93 °C; `Cc1cc(Cl)n2ncnc2c1`: 93 to 95 °C. As for `O=S(=O)(c1ccc2[nH]c(S)nc2c1)N1CCOCC1`, the figure is 285 to 287 °C. `CC(C)n1cnc2cc(C(=O)O)ccc21` gave a melting point of 216 to 218 °C. Compound `CCOc1cc(Cl)ccc1C(=O)O` showed a melting point of 119 to 121 °C. As for `Nc1cc(-c2ccc([N+](=O)[O-])cc2)no1`, the figure is 195 to 197 °C; as for `NCCCCN1CCN(CCO)CC1`, 90 to 92 °C; as for `Cc1c(C(=O)O)cnn1C1CCS(=O)(=O)C1` (configuration not stated), 249 to 251 °C.

As for `CC(C)c1oc(-c2ccccc2)nc1C(=O)O`, the melting point lay in the range of 153 to 155 °C. For `CC(C)c1ccc(C=CCC(=O)O)cc1`, the melting point was in the range of 49 to 51 °C.

For `Cn1c(S)nnc1CO`, the melting point was 189 to 191 °C. As for `Sc1nnc(-c2ccco2)o1`, the figure is 173 to 175 °C.

With `COC(=O)c1ccc(C(=O)O)s1`, the melting point lay in the range of 194 to 196 °C.

`CN(C)c1ccc(C(=N)N)c(F)c1` had a melting point of 133 to 135 °C. `COc1cc(CC#N)ccc1[N+](=O)[O-]`: the melting point lay within 84 to 86 °C. As for `Nc1cccc(Cn2[nH]c(=O)ccc2=O)c1`, the figure is 163 to 165 °C. Next, `O=C(O)c1cc2[nH]nnc2cc1F`: 268 to 270 °C. As for `O=[N+]([O-])c1cccc2cc(I)cnc12`, the figure is 118 to 120 °C; as for `O=C(O)CNS(=O)(=O)c1ccc2c(c1)OCCCO2`, 75 to 77 °C; as for `CC(=O)c1ccc(N2CCCS2(=O)=O)cc1`, 137 to 139 °C. In the case of `COc1cc(N)ccc1N1CCCC1=O`, the melting point fell in the range of 126 to 128 °C. Compound `CC(=O)c1ccc(N)cc1Cl` gave a melting point of 58 to 60 °C.

Consider `O=S(=O)(Cl)CCNS(=O)(=O)c1ccccc1`, for which the melting point fell in the range of 96 to 98 °C. As for `Cc1cc(Br)cc(C)c1NC(=O)CCCCl`, the figure is 139 to 141 °C; as for `O=C(O)c1cccc(N2C(=O)CSC2=S)c1`, 260 to 262 °C.

The compound `NNc1c([N+](=O)[O-])cc(C(F)(F)F)cc1[N+](=O)[O-]` gave a melting point of 129 to 131 °C. Turning to `NC(=O)C1CCCN1Cc1ccccc1N` (configuration not stated), the melting point is 121 to 123 °C.

The compound `Cc1cc2c(n1-c1cccc(C(F)(F)F)c1)CCCC2=O` displayed a melting point of 121 to 123 °C. As for `CS(=O)(=O)Nc1ccc(S(N)(=O)=O)cc1F`, the melting point fell in the range of 190 to 192 °C. `CC(=O)c1c(O)cc(C)oc1=O`: the melting point was in the range of 109 to 111 °C. As for `COc1cc(C(=O)O)ccc1OCc1ccccn1`, the figure is 149 to 151 °C. The compound `CS(=O)(=O)c1cccc(C(=O)c2cc(F)ccc2F)c1` returned a melting point of 87 to 89 °C. Next, `Nc1cc(-c2cccc(Cl)c2)nn1CCO`: 146 to 148 °C; `Nc1ccc(N2CCNC2=O)cc1`: 171 to 173 °C. Next, `Nc1nc(-c2ccc3c(c2)CCO3)cs1`: 173 to 175 °C. As for `BrCc1cc(Br)c2c(c1)OCO2`, the figure is 123 to 125 °C.

`O=C(O)c1cc(C=Cc2ccncc2)nc2ccc(Br)cc12` gave a melting point of 309 to 311 °C. Next, `Nc1ncn(Cc2ccccn2)n1`: 113 to 115 °C.

In the case of `Cc1ccc(-c2csc(NC(=O)CCl)n2)cc1`, the melting point is 169 to 171 °C. Next, `CCOC(=O)c1ccc(-c2ccc(C=O)o2)cc1`: 110 to 112 °C.
